Source: US20140220100A1, “VACCINE COMPOSITION FOR TRANSDERMAL ADMINISTRATION” (NITTO DENKO CORPORATION, priority 2013, published 2014)

Each compound was assayed on IFN-γ-producing cells (spleen cells co-cultured with antigen peptide) (assay: Immunity Induction Test 1 in mouse (liquid formulation for external use), ELISPOT). Settings: summary of Tables 1, 2 and 4; transdermal HER2/neu E75 peptide vaccine composition.
Assay type: in vivo
Protocol: A cellulose non-woven fabric (area 0.8 cm^2) was attached to a middle part of an adhesive tape for fixing to prepare a composite substrate. The non-woven fabric part of the composite substrate was immersed with 67 μL of the liquid formulation for external use. Thus a sample for immunity induction test was prepared.
The liquid formulations for external use prepared as above described were used to perform an immunity induction test using a model mouse for immunological evaluation. The immunity induction level was evaluated by ELISPOT method. Specifically, the hair of the back skin of a mouse was cut, and the mouse was kept in a period for recovering from the skin damage. Thereafter, each sample was administered to the back skin of the mouse for a predetermined period, and then removed. After keeping the mouse for a predetermined day, the level of the cellular immunity induction specific for the antigen was evaluated. On a predetermined day after the administration, the spleen of the mouse was excised to prepare a suspension of the spleen cells. Spleen cells (3×10^6 cells/well) and an antigen peptide (100 μM) were added together with a culture solution into a well of ELISPOT plate containing an immobilized anti-mouse IFN-γ […], and co-cultured at 37° C. in 5% CO2 for 20 hours. The spot number of IFN-γ-producing cells was evaluated by ELISPOT method (the number of the spot/3×10^6 cells). The dosage of the liquid formulation for external use was all 67 μL as described above, and the administration was performed once (24 hr/week), the spleen was excised 6 days after the administration.
The results of the immunity induction test, and the measurement results of TSLP level and transepidermal water loss are shown in Table 1.

Q: How did the “promotion of induction of cellular immunity by addition of a pharmacologically acceptable acid as second cellular immunity induction promoter” value turn out when `CS(=O)(=O)O` [methanesulfonic acid] was run?
A: effective

Q: `CCCCCCCCCC(=O)O` [decanoic acid] was tested. Which “promotion of induction of cellular immunity by addition of a pharmacologically acceptable acid as second cellular immunity induction promoter” value did it give?
A: effective

Q: Which “promotion of induction of cellular immunity by addition of a pharmacologically acceptable acid as second cellular immunity induction promoter” value does the source give for `CC(C)CCCCCCCCCCCCCCC(=O)O` [isostearic acid] here?
A: effective

Q: Which “promotion of induction of cellular immunity by addition of a pharmacologically acceptable acid as second cellular immunity induction promoter” value does the source give for `O=C(O)CC(O)C(=O)O` (stereo not drawn) [malic acid] here?
A: effective

Q: For `CCCCCCCCCCCCCC(=O)O` [myristic acid], which “promotion of induction of cellular immunity by addition of a pharmacologically acceptable acid as second cellular immunity induction promoter” value is on record?
A: effective

Q: With `CCCCCCCC/C=C\CCCCCCCC(=O)O` [oleic acid] as the compound, how does the “promotion of induction of cellular immunity by addition of a pharmacologically acceptable acid as second cellular immunity induction promoter” value read?
A: effective

Q: `CCCCCCCCCCCCCCCC(=O)O` [palmitic acid] was tested. Which “promotion of induction of cellular immunity by addition of a pharmacologically acceptable acid as second cellular immunity induction promoter” value did it give?
A: effective

Q: For `O=C(O)/C=C\C(=O)O` [maleic acid], which “promotion of induction of cellular immunity by addition of a pharmacologically acceptable acid as second cellular immunity induction promoter” value is on record?
A: effective

Q: How did the “promotion of induction of cellular immunity by addition of a pharmacologically acceptable acid as second cellular immunity induction promoter” value turn out when `O=C(O)c1ccccc1O` [salicylic acid] was run?
A: effective

Q: `CC(O)C(=O)O` (stereo not drawn) [lactic acid] was tested. Which “promotion of induction of cellular immunity by addition of a pharmacologically acceptable acid as second cellular immunity induction promoter” value did it give?
A: effective

Q: With `CCCCCCCCCCCC(=O)O` [lauric acid] as the compound, how does the “promotion of induction of cellular immunity by addition of a pharmacologically acceptable acid as second cellular immunity induction promoter” value read?
A: effective

Q: How did the “promotion of induction of cellular immunity by addition of a pharmacologically acceptable acid as second cellular immunity induction promoter” value turn out when `CCCCCCCCCCCCCCCCCC(=O)O` [stearic acid] was run?
A: effective
